Numbers after ± are expanded uncertainties.
Experiment: wn = mass fraction of the nth substance listed
Conditions: w1 = 0.0516; for surface tension liquid-gas: Maximal bubble pressure; for viscosity / mass density: 101 kPa, Liquid; for viscosity: Capillary tube (Ostwald / Ubbelohde) method; for mass density: Pycnometric method

C1CNCCN1 [piperazine] + O
Conditions | mass density [kg/m3] | surface tension liquid-gas [mN/m] | viscosity [mPa·s]
303.15 K | 998.03 ± 0.4 | 68.55 ± 0.54 | 0.948 ± 0.009
313.15 K | 994.71 ± 0.44 | 66.97 ± 0.53 | 0.75 ± 0.007
323.15 K | 990.08 ± 0.47 | 65.1 ± 0.52 | 0.616 ± 0.006
